What was measured:
eIF4A = molecular target: T1, eIF4A (Homo sapiens, UniProt P60842); conditions: cited from earlier work
T1 construct: His; gift of Dr. Nadejda Korneeva, Louisiana State University

PPARγ = molecular target: T2, PPARγ (Homo sapiens, UniProt P37231); assay: PPARγ reporter (PPRE) luciferase assay in 293T cells; format: cell-based; conditions: 1 μM 24 hours before 10 μM rosiglitazone or troglitazone 12 hours, FIG. 3D
T2 construct: 293T cells that were transfected with a plasmid (1 μg) expressing a PPARγ reporter gene; endogenous in cells; host or cells: 293T
T2 sequence (P37231 1-505): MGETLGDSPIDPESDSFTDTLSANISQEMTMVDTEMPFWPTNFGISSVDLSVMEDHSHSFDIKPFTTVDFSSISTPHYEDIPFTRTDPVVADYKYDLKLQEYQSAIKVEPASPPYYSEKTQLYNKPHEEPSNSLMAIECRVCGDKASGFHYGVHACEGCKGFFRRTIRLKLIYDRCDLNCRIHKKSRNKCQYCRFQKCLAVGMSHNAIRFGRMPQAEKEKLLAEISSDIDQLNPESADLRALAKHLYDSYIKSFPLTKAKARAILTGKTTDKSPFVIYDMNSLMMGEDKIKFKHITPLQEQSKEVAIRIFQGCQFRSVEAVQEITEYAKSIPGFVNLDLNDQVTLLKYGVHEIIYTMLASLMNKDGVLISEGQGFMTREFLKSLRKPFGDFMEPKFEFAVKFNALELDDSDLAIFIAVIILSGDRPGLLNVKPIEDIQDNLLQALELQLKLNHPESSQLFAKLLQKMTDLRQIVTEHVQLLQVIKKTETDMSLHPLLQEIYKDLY
Procedure: Luciferase assays were performed as described elsewhere (Kim et al., 2005, which is hereby incorporated by reference for all purposes as if fully set forth herein).
293T cells that were transfected with a plasmid (1 μg) expressing a PPARγ reporter gene. After transfection, cells were pretreated or not pretreated with 1 μM of GW9662 for 24 hours, before being treated with 10 μM of rosiglitazone (Rosi) or troglitazone (Tro) for 12 hours. The obtained relative luciferase activities in the cell extracts normalized to a mock-treated control extract are shown in FIG. 3D.

HeLa cells = assay: Stress granule (SG) formation in HeLa cells, immunocytochemistry; format: cell-based; conditions: pretreated with 1 μM for 24 hours, then 50 μM prostaglandin 1 hour, FIG. 3C

T1 sequence (P60842 whole entry): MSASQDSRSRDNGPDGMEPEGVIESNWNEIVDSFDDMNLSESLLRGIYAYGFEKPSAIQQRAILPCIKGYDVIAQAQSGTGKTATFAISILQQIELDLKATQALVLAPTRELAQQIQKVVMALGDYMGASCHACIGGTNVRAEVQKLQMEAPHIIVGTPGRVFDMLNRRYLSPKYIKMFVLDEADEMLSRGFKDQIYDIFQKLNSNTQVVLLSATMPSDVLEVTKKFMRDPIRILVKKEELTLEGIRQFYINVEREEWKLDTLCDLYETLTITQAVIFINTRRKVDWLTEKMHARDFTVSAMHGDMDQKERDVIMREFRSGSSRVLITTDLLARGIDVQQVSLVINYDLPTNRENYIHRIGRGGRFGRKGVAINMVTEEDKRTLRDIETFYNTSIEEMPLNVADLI

Row | PPARγ-mediated PPRE activation (PPARγ) | Structure (SMILES) | SG formation (eIF4A; Dang et al., 2006) | Translation (eIF4A; Low et al., 2005) | Effect of pretreatment on SG formation induced by 15d-PGJ2 and PGA1 (HeLa cells)
1 |  | CC(/C=C/C(C)=C/[C@@H]1Cc2nc(cs2)[C@@H](C)C[C@@H](N)CC(=O)O[C@@H](C)C/C(C)=C/C=C\C(=O)O1)=C\CN(C)C [PatA, pateamine A] | induces formation of SGs independently of eIF2F phosphorylation | could block translation by inactivating eIF4A | 
2 | completely blocked | O=C(Nc1ccccc1)c1cc([N+](=O)[O-])ccc1Cl [GW9662] |  |  | had no effect on SG formation induced by 15d-PGJ2 and PGA1

Source: patent US20090023810A1, “METHODS OF TRANSLATION AND/OR INFLAMMATION BLOCKADE” (priority 2007, published 2009)
